Measurements published in patent publication US7317028B2, “Cell differentiation inducer” (Schering Aktiengesellschaft, priority 1996, dated 2008).

Key:
A2780 cells = assay: Test for induction of differentiation in A2780 cells (ALP activity, ALPmin); type: cell-based, human; details: for minimal effective concentration: Homo sapiens, 72 h, A2780 cells, 3 days incubation, minimum concentration of the drug inducing increase of ALP activity
How it was run: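 A2780 cells seeded at 15,000/well, test compound added in serial dilution the next day. ALP reaction stopped with 3N NaOH and absorbance read at 405 nm; ALPmin is the lowest concentration raising ALP activity.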

[1] = tested on: Murine myeloid leukemia cells WEHI-3; assay: Antitumor test, life prolongation in mice inoculated with WEHI-3 cells (T/C); type: in vivo, Balb/C mouse; details: oral once a day Day 1 to 4 and Day 7 to 11, ratio of survival days to control
Description: Murine myeloid leukemia cells WEHI-3 (1 to 3×10^6 cells) were intraperitoneally inoculated to a Balb/C mouse, and administration of a test compound was initiated on the next day. The day was Day 1 and subsequently the drug was orally administered once a day in Day 1 to 4 and in Day 7 to 11. Survival days after inoculation were observed, which were used to calculate the ratio of the survival days for the test coompound group to those for the control group (T/C, %). The ratio was used to evaluate a life prolongation effect.

Nc1ccccc1NC(=O)c1ccc(CNC(=O)COc2cccnc2)cc1 [Example 46, N-(2-aminophenyl)-4-[N-(pyridin-3-yl)oxyacetylaminomethyl]benzamide]
melting point: 154 to 155 °C | differentiation-inducing activity (A2780 cells): high | minimal effective concentration (A2780 cells): 0.1 µM | T/C ([1]; Dose 32 μmol/kg): 141%

Nc1ccccc1NC(=O)c1ccc(CNC(=O)OCc2cccnc2)cc1 [Example 48, N-(2-aminophenyl)-4-[N-(pyridin-3-yl)methoxycarbonylaminomethyl]benzamide]
differentiation-inducing activity (A2780 cells): high | minimal effective concentration (A2780 cells): 0.1 µM | T/C ([1]; Dose 130 μmol/kg): 190%

Nc1ccccc1NC(=O)c1ccc(NC(=O)COCc2cccnc2)cc1 [Example 130, N-(2-aminophenyl)-4-[(pyridin-3-yl)methoxyacetylamino]benzamide]
minimal effective concentration (A2780 cells): 0.03 µM | T/C ([1]; Dose 130 μmol/kg): 189%
